Measured values as given in ChEMBL document CHEMBL1201862, “PubChem BioAssay data set” (2004).
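Step 1: Grow cells in 96-well plates. Step 2: Expose to compound for 48 hours at 5 concentrations. Step 3: Interpolate endpoints linearly; if unreached, use highest concentration. At the GI50, growth is halved.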 Active and inactive are the calls of the source. No stated cut-off is given here; in the data, active = GI50 up to about 1.1 µM and inactive = higher.

Key:
Experiment in all cases: NCI anticancer screen, dose series, 48 h
A498 = test system: A498
CAKI-1 = test system: CAKI-1
HCC 2998 = test system: HCC 2998
HCT-116 = test system: HCT-116
KM12 = test system: KM12
MDA-MB-231 = test system: MDA-MB-231
MDA-N = test system: MDA-N
MOLT-4 = test system: MOLT-4
NCI-H23 = test system: NCI-H23
NCI-H460 = test system: NCI-H460
OVCAR-4 = test system: OVCAR-4
PC-3 = test system: PC-3
SF-268 = test system: SF-268
SF-295 = test system: SF-295
SF-539 = test system: SF-539
SK-MEL-5 = test system: SK-MEL-5
SNB-19 = test system: SNB-19
SR = test system: SR
UACC-62 = test system: UACC-62

Measured: GI50

COc1cccc(Nc2nc(NNC(=O)Cc3ccccc3)nc(NNC(=O)c3ccncc3)n2)c1
inactive: A498 > 100 µM | CAKI-1 > 10 µM | HCC 2998 > 10 µM | HCT-116 > 100 µM | KM12 71.3 µM | MDA-MB-231 8.55 µM | MDA-N > 10 µM | MOLT-4 78.7 µM | NCI-H23 > 10 µM | NCI-H460 > 10 µM | OVCAR-4 > 10 µM | PC-3 53.1 µM | SF-268 > 10 µM | SF-295 > 100 µM | SF-539 > 10 µM | SK-MEL-5 > 10 µM | SNB-19 > 100 µM | SR 6.62 µM | UACC-62 4.71 µM

C=CCSC1=N/C(=C\c2ccco2)C(=O)N1CC=C
inactive: A498 27.2 µM | CAKI-1 70.6 µM | HCC 2998 > 100 µM | HCT-116 52.1 µM | KM12 64.4 µM | MDA-MB-231 98.9 µM | MDA-N 41.8 µM | MOLT-4 25.9 µM | NCI-H23 66.5 µM | NCI-H460 > 100 µM | OVCAR-4 38 µM | PC-3 46.7 µM | SF-268 > 100 µM | SF-295 71.1 µM | SF-539 > 100 µM | SK-MEL-5 37.5 µM | SNB-19 > 100 µM | SR 25.4 µM | UACC-62 39.4 µM

CCOS(=O)(=O)c1ccc(-c2c3nc(c(-c4ccc(S(=O)(=O)OCC)cc4)c4ccc([nH]4)c(-c4ccc(S(=O)(=O)OCC)cc4)c4nc(c(-c5ccc(S(=O)(=O)OCC)cc5)c5ccc2[nH]5)C=C4)C=C3)cc1
inactive: A498 > 31.6 µM | CAKI-1 > 31.6 µM | HCC 2998 > 31.6 µM | HCT-116 > 31.6 µM | KM12 > 31.6 µM | MDA-MB-231 > 31.6 µM | MDA-N > 31.6 µM | MOLT-4 > 31.6 µM | NCI-H23 > 31.6 µM | NCI-H460 > 31.6 µM | OVCAR-4 > 31.6 µM | PC-3 > 31.6 µM | SF-268 > 31.6 µM | SF-295 > 31.6 µM | SF-539 8.13 µM | SK-MEL-5 > 31.6 µM | SNB-19 > 31.6 µM | SR > 31.6 µM | UACC-62 > 31.6 µM

COc1ccccc1-c1cc(O)c2cccnc2n1
inactive: A498 54.2 µM | CAKI-1 29.4 µM | HCC 2998 > 100 µM | HCT-116 27.5 µM | KM12 35.6 µM | MDA-MB-231 52.6 µM | MDA-N 20 µM | MOLT-4 35.2 µM | NCI-H23 35.2 µM | NCI-H460 39.4 µM | OVCAR-4 69.5 µM | PC-3 40.2 µM | SF-268 72.4 µM | SF-295 67.9 µM | SF-539 56.9 µM | SK-MEL-5 31.4 µM | SNB-19 69.2 µM | SR > 100 µM | UACC-62 47.5 µM
